ChEMBL document CHEMBL4619774 (J Med Chem, 2020)

How the values were obtained:
[1] = Dose normalized AUC in C57BL/6 mouse at 3 mg/kg, po by LC-MS/MS analysis; format: ADME, organism-based; settings: in vivo
Homo sapiens = species on record: Homo sapiens; test: Selectivity ratio of IC50 for inhibition of human complement FD to IC50 for inhibition of human F11a
[2] = Oral bioavailability in C57BL/6 mouse at 3 mg/kg by LC-MS/MS analysis; format: ADME, organism-based; settings: in vivo
[3] = Volume of distribution at steady state in C57BL/6 mouse at 0.4 mg/kg, iv bolus injection or 3 mg/kg, po by LC-MS/MS analysis; format: ADME, organism-based; settings: in vivo, read-out: Vdss
Coagulation factor VII = target: T1, Coagulation factor VII (Homo sapiens, UniProt P08709); format: single protein
T1 sequence (P08709 whole entry): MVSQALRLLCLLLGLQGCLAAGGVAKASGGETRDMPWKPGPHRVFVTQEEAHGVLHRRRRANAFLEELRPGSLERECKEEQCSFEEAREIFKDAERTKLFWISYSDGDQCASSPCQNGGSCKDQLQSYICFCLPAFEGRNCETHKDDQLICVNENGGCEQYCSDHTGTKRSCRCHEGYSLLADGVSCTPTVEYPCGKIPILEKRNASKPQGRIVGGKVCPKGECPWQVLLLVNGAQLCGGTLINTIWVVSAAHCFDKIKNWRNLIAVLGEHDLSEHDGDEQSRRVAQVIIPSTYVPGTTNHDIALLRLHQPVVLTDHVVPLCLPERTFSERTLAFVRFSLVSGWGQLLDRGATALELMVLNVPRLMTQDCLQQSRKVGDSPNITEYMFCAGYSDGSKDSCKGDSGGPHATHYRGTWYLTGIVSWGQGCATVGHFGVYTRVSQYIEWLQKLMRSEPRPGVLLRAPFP

Plasma kallikrein = Plasma kallikrein (Homo sapiens, UniProt P03952); format: single protein
Prothrombin = Prothrombin (Homo sapiens, UniProt P00734); format: single protein
[4] = Terminal half life in C57BL/6 mouse at 0.4 mg/kg, iv bolus injection or 3 mg/kg, po by LC-MS/MS analysis; format: ADME, organism-based; settings: in vivo, read-out: beta t1/2 (converted)
Coagulation factor X = Coagulation factor X (Homo sapiens, UniProt P00742); format: single protein
Coagulation factor XI [5] = target: T2, Coagulation factor XI (Homo sapiens, UniProt P03951); test: Inhibition of […] human plasma F11a catalytic domain expressed in Escherichia coli strain BL21(DE3) using D-Leu-Pro-Arg*Rh110-D-Pro as substrate preincubated for 60 mins followed by substrate addition and measured after 60 mins by fluorescence assay
Plasminogen = Plasminogen (Homo sapiens, UniProt P00747); format: single protein
[6] = Clearance in C57BL/6 mouse at 0.4 mg/kg, iv bolus injection or 3 mg/kg, po by LC-MS/MS analysis; format: ADME, organism-based; settings: in vivo
Coagulation factor XI [7] = target: T2, Coagulation factor XI; test: Inhibition of human F11a using D-Leu-Pro-Arg*Rh110-D-Pro as substrate preincubated for 60 mins followed by substrate addition and measured after 60 mins by fluorescence assay
Complement factor D = Complement factor D (Homo sapiens, UniProt P00746); format: single protein
[8] = Dose normalized Cmax in C57BL/6 mouse at 0.4 mg/kg, iv bolus injection or 3 mg/kg, po by LC-MS/MS analysis; format: ADME, organism-based; settings: in vivo
[9] = Tmax in C57BL/6 mouse at 0.4 mg/kg, iv bolus injection or 3 mg/kg, po by LC-MS/MS analysis; format: ADME, organism-based; settings: in vivo
Coagulation factor IX = Coagulation factor IX (Homo sapiens, UniProt P00740); format: single protein
[10] = target: T3, Urokinase-type plasminogen activator (Homo sapiens, UniProt P00749); format: single protein
[11] = Dose normalized AUC in C57BL/6 mouse at 0.4 mg/kg, iv bolus injection by LC-MS/MS analysis; format: ADME, organism-based; settings: in vivo
[12] = target: Tissue-type plasminogen activator (Homo sapiens, UniProt P00750); format: single protein
[13] = target: Synaptic vesicular amine transporter (Homo sapiens, UniProt Q05940); test: Inhibition of VMAT2 (unknown origin)
[14] = Volume of distribution at steady state in C57BL/6 mouse at 1 mg/kg, iv bolus injection or 3 mg/kg, po by LC-MS/MS analysis; format: ADME, organism-based; settings: in vivo, read-out: Vdss
[15] = Clearance in C57BL/6 mouse at 1 mg/kg, iv bolus injection or 3 mg/kg, po by LC-MS/MS analysis; format: ADME, organism-based; settings: in vivo
[16] = target: T3, Urokinase-type plasminogen activator; format: ADME
[17] = target: Prostaglandin G/H synthase 1 (Homo sapiens, UniProt P23219); test: Inhibition of COX1 (unknown origin)
[18] = Terminal half life in C57BL/6 mouse at 1 mg/kg, iv bolus injection or 3 mg/kg, po by LC-MS/MS analysis; format: ADME, organism-based; settings: in vivo, read-out: beta t1/2 (converted)
[19] = target: 3',5'-cyclic-AMP phosphodiesterase 4D (Homo sapiens, UniProt Q08499); test: Inhibition of PDE4D (unknown origin)
[20] = Dose normalized Cmax in C57BL/6 mouse at 1 mg/kg, iv bolus injection or 3 mg/kg, po by LC-MS/MS analysis; format: ADME, organism-based; settings: in vivo
Plasma [21] = test: Effect on coagulation in human plasma assessed as concentration required to double the prothrombin time by thromboplastin-DS reagent based automated coagulometric method; format: ADME, cell-free
Plasma [22] = test: Anticoagulant activity in human plasma assessed as concentration required to double the activated partial thromboplastin time incubated for 3 mins followed by calcium chloride addition by aPTT-s reagent based automated coagulometric method; format: functional

Tissue-type plasminogen activator, sequence (P00750 whole entry): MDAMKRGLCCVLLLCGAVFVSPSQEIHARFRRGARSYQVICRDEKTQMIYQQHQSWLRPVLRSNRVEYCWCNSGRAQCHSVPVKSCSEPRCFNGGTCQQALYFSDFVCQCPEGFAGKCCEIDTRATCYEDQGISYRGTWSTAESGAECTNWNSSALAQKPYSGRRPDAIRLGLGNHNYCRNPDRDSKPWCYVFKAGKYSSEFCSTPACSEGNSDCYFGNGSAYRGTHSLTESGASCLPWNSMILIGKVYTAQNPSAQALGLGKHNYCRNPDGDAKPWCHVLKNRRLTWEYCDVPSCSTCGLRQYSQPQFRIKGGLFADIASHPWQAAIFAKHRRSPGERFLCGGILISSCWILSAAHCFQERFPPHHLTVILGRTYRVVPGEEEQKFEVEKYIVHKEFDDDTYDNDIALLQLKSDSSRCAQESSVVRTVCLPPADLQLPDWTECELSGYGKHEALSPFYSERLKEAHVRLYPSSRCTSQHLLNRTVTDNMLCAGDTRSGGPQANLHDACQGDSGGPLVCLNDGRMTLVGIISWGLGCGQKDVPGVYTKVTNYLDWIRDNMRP
T2 sequence (P03951 19-387 limits assumed): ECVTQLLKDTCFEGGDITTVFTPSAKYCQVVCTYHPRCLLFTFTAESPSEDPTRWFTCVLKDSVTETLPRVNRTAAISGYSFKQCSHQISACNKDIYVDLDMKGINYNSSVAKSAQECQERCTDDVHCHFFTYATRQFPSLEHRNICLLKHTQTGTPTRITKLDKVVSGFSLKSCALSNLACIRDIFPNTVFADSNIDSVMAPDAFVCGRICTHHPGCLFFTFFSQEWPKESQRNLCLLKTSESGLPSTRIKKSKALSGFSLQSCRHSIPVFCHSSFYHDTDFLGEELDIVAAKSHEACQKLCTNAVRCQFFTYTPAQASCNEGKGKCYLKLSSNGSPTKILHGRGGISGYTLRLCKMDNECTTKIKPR
T2 sequence (P03951 388-625 limits assumed): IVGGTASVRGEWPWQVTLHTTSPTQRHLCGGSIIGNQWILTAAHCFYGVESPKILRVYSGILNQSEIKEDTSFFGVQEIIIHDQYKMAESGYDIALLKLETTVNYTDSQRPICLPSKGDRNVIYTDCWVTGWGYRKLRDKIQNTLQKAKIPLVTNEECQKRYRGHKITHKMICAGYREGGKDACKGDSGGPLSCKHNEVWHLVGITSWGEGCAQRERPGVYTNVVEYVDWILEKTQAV
Coagulation factor IX, sequence (P00740 47-191 limits assumed): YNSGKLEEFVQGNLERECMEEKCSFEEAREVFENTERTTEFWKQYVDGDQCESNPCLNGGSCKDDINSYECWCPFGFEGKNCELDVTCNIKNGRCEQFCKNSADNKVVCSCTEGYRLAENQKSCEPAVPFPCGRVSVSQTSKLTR
Coagulation factor IX, sequence (P00740 227-461 limits assumed): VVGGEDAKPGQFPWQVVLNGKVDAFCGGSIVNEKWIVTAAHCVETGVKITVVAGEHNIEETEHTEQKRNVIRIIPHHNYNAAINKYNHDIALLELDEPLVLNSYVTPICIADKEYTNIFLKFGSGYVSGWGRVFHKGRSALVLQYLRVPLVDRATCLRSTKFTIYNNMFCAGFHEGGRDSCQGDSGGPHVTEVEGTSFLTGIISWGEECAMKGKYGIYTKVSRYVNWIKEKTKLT
Plasminogen, sequence (P00747 97-580 limits assumed): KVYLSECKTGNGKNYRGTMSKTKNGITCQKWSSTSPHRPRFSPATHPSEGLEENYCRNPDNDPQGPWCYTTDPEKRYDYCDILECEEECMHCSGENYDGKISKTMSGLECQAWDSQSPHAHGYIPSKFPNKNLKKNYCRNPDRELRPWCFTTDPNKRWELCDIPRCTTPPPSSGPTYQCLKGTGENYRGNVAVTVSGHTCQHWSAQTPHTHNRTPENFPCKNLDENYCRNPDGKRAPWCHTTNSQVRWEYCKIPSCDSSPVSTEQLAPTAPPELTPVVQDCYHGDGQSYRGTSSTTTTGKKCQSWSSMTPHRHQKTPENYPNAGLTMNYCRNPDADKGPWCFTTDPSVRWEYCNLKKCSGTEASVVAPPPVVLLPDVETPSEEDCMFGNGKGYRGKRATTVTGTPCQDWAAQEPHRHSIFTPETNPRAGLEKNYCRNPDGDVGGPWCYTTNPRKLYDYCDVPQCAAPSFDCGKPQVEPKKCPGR
Plasminogen, sequence (P00747 581-810 limits assumed): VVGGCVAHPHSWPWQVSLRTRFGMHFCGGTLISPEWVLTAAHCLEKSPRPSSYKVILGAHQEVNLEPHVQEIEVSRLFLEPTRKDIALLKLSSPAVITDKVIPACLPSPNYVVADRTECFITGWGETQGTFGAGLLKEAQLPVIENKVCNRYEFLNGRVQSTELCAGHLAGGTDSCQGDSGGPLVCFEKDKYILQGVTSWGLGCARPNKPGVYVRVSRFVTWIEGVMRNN
Coagulation factor X, sequence (P00742 41-179 limits assumed): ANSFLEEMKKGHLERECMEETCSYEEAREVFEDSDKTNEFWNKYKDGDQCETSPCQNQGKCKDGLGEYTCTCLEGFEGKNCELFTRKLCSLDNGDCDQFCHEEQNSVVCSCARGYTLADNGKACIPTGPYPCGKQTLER
Coagulation factor X, sequence (P00742 235-488 limits assumed): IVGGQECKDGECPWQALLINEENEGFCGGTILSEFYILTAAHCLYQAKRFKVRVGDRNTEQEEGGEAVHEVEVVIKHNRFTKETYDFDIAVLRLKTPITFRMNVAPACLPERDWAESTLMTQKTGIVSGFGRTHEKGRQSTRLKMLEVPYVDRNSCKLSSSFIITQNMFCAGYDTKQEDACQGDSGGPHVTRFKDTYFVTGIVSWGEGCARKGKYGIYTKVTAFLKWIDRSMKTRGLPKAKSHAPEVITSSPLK
Complement factor D, sequence (P00746 whole entry): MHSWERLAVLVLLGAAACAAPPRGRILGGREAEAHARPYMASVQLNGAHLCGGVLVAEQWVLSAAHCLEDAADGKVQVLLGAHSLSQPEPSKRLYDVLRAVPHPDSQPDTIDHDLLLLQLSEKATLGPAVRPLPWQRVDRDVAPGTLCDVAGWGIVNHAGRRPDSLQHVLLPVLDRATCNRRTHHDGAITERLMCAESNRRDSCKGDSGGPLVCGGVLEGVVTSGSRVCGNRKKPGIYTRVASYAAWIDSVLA
Prostaglandin G/H synthase 1, sequence (P23219 whole entry): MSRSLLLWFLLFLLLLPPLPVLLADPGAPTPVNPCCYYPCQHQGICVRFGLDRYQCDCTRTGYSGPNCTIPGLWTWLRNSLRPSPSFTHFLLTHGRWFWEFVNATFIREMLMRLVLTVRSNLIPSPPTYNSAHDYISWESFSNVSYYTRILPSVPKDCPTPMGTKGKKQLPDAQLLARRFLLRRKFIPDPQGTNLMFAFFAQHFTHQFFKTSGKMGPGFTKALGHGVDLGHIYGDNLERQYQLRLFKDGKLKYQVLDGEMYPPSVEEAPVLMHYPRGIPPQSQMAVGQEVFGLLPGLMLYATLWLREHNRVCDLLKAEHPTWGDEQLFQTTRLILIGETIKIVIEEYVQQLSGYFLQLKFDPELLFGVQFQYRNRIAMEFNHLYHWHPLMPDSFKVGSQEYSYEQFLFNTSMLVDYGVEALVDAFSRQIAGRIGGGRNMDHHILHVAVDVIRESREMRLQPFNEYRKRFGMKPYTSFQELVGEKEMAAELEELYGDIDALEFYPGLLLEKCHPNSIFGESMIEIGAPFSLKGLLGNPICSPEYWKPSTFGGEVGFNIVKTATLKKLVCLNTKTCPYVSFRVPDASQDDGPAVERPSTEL
Synaptic vesicular amine transporter, sequence (Q05940 whole entry): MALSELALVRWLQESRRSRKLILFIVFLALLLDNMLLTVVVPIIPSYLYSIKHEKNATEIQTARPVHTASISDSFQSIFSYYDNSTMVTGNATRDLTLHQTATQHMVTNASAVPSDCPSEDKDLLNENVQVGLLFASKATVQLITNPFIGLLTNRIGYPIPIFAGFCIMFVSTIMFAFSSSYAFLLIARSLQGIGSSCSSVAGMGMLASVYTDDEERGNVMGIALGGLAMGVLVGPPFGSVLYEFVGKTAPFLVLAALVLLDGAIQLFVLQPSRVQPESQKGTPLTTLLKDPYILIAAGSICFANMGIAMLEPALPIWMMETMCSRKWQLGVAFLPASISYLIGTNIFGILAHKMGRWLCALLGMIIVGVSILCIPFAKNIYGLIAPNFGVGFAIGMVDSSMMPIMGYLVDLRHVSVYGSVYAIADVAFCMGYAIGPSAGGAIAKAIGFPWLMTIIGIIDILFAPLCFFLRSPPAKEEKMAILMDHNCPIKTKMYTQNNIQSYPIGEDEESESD
3',5'-cyclic-AMP phosphodiesterase 4D, sequence (Q08499 whole entry): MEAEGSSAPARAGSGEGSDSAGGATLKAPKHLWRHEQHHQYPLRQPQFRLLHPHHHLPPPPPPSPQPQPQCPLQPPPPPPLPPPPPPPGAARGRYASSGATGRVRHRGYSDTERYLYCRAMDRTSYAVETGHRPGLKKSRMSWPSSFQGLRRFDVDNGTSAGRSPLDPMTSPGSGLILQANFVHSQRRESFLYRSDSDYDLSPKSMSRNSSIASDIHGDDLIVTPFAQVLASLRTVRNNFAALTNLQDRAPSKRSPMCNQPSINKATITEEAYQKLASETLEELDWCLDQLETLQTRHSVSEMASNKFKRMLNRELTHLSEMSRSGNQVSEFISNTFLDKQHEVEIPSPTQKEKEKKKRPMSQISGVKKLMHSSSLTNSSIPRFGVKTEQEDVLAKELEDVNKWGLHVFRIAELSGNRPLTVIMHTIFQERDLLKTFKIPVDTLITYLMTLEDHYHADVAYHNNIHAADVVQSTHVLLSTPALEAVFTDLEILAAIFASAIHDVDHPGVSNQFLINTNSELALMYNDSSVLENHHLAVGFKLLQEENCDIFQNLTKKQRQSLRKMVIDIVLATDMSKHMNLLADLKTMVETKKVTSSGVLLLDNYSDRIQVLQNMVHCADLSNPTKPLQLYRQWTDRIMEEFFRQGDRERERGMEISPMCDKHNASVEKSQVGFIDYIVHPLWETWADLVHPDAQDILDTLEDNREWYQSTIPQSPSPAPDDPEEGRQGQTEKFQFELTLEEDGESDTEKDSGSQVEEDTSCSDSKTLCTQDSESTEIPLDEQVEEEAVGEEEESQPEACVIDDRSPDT

Row | Structure (SMILES) | AUC/dose [1] [nM·h] | bioavailability [2] [%] | IC50 (Coagulation factor VII) [nM] | IC50 (Prothrombin) [nM] | IC50 (Coagulation factor X) [nM] | IC50 (Plasminogen) [nM] | IC50 (Complement factor D) [nM] | IC50 (Coagulation factor IX) [nM] | IC50 [10] [nM] | IC50 [12] [nM] | further results
1 | CC(C)c1cc(CCN2CCc3cccc(C(=O)O)c32)cc(-c2ccc3c(c2)[C@H](N)CO3)c1 | 14041 | 36 | 6230 | 3080 | 1830 | 2560 | 4410 | 3300 | 520 | 660 | Ratio IC50 (Homo sapiens): 700; Vd [3]: 0.4 L/kg; IC50 (Plasma kallikrein): 58 nM; half-life [4]: 9.2 h; IC50 (Coagulation factor XI [5]): 220 nM; clearance [6]: 1 mL/min/kg; IC50 (Coagulation factor XI [7]): 6 nM; Cmax/dose [8]: 1.495 µM; Tmax [9]: 0.7 h; AUC/dose [11]: 38652 nM·h
2 | CC(C)c1cc(COc2ccccc2CC(=O)O)cc(-c2ccc3c(c2)[C@H](N)CO3)c1 | 48927 | 100 | 5100 | 90 | 500 | 2600 | 40 | 170 | 47 | 90 | IC50 [13]: 5200 nM; Vd [14]: 0.4 L/kg; clearance [15]: 1 mL/min/kg; IC50 [16]: 47 nM; IC50 [17]: 3300 nM; half-life [18]: 5.5 h; IC50 [19]: 7200 nM; Cmax/dose [20]: 5.263 µM; 2PT (Plasma [21]): 9.9 µM; 2aPTT (Plasma [22]): 2.2 µM
